Broadly, the GI50 is the concentration at which growth is held to half of that of the control.

Common to all, as to format: cell-based
The subject of test [1] is A549 cells. Description: sulforhodamine B cytotoxicity assay, 72 hour drug exposure, A549.
The subject of another test is LEWIS LUNG cells. In words: sulforhodamine B cytotoxicity assay, 72 hour drug exposure, Lewis lung.
The subject of a further test is OVCAR 3 cells. Description: sulforhodamine B cytotoxicity assay, 72 hour drug exposure, OVCAR 3. Background: The SRB assay estimates cell density from bound dye.
For the next test, the system named is MCF 7/ADR cells. Description: in vitro sensitivity at different drug exposure times, MCF 7/ADR. To be noted: Homo sapiens, NCI/ADR-RES. On the procedure: (§1) These studies were performed using a sulforrhodamine B assay (see Monks et al., J. Natl. Cancer Inst. (U.S.) 83:757 ([…])). Compounds were dissolved in ethanol. Results from these studies, presented in the following tables, are expressed as Gl50 values, that is, concentration of a drug (micromolar) required to inhibit growth of fifty percent of the cells.

Another test relates to CAKI 1 cells. Description: sulforhodamine B cytotoxicity assay, 72 hour drug exposure, CAKI 1.
Test [2] has as its system A549 cells. In words: in vitro sensitivity at different drug exposure times, A549. To be noted: Homo sapiens. On the procedure:
as §1

The test system of another test is SKMEL 28 cells. Description: sulforhodamine B cytotoxicity assay, 72 hour drug exposure, SKMEL 28.
Another test has as its system MCF7/ADR cells. In words: sulforhodamine B cytotoxicity assay, 72 hour drug exposure, MCF7/ADR.
The subject of a further test is MCF7 cells. Description: sulforhodamine B cytotoxicity assay, 72 hour drug exposure, MCF7.
The subject of a further test is HT 29 cells. Description: sulforhodamine B cytotoxicity assay, 72 hour drug exposure, HT 29.
The test system of a further test is U937 cells. Description: sulforhodamine B cytotoxicity assay, 72 hour drug exposure, U937. To be noted: Homo sapiens, U-937. On the procedure:
as §1

A further test deals with C3H10T1/2 cells. Description: sulforhodamine B cytotoxicity assay, 72 hour drug exposure, C3H10T1/2. To be noted: Mus musculus, C3H 10T1/2. On the procedure: as §1
In another test the test system is RPMI 7666 cells. In words: sulforhodamine B cytotoxicity assay, 72 hour drug exposure, RPMI 7666. On the procedure:
as §1

Where [3] appears, read: Homo sapiens, NCI/ADR-RES, 72 h.

Structures can show the parent of a compound that is named as a salt.

In the case of `CCCCCCCCCCCCC/C=C/[C@@H](O)[C@H](CO)NCCCCCCCC`, the GI50 in the test on A549 cells [1] (Homo sapiens, A549, 72 h) was 4.91 ± 0.01 µM; in the test with LEWIS LUNG cells (Lewis lung carcinoma, 72 h) it was 5.05 ± 0.02 µM; with OVCAR 3 cells (Homo sapiens, OVCAR-3, 72 h) it was 5.41 ± 0.13 µM; in the test with MCF 7/ADR cells (1 hour pulse) it was 34.3 ± 4.2 µM; in the test with MCF 7/ADR cells (4 hour pulse), 14.2 ± 1.2 µM; in the test with MCF 7/ADR cells (8 hour pulse), 8.9 ± 0.2 µM. Also, the GI50 is 4.8 ± 0.1 µM with MCF 7/ADR cells (24 hour pulse); 4.62 ± 0.1 µM with MCF 7/ADR cells (48 hour pulse); 5 ± 0.1 µM with MCF 7/ADR cells (72 hour continuous exposure); 4.64 ± 0.07 µM in the test with CAKI 1 cells (Homo sapiens, CAKI-1, 72 h); 31.2 ± 5 µM with A549 cells [2] (1 hour pulse); 12.8 ± 1 µM with A549 cells [2] (4 hour pulse). Also, the GI50 with A549 cells [2] (8 hour pulse) stood at 6.7 ± 0.2 µM; in the test on A549 cells [2] (24 hour pulse), 5 ± 0.1 µM; in the test with A549 cells [2] (48 hour pulse) it was 4.8 ± 0.1 µM; in the test on A549 cells [2] (72 hour continuous exposure), 5 µM; with SKMEL 28 cells (Homo sapiens, SK-MEL-28, 72 h) it was 4.96 ± 0.03 µM; with MCF7/ADR cells (setting [3]), 4.88 ± 0.04 µM. The GI50 in the test with MCF7 cells (Homo sapiens, MCF7, 72 h) amounted to 4.88 ± 0.11 µM; with HT 29 cells (Homo sapiens, HT-29, 72 h), 5.72 ± 0.24 µM.

Turning to `CCCCCCCCCCCCC/C=C/[C@@H](OC(C)=O)[C@H](COC(C)=O)NC(=O)CCCCC` [1,3-Diacetate C6-Ceramide], the GI50 in the test with A549 cells [1] (Homo sapiens, A549, 72 h) was 6.1 ± 1.1 µM; in the test with LEWIS LUNG cells (Lewis lung carcinoma, 72 h), 4.9 ± 0.5 µM; in the test on MCF7/ADR cells (setting [3]), 42.9 ± 3.6 µM; in the test on MCF7 cells (Homo sapiens, MCF7, 72 h), 15.5 ± 0.2 µM.

With `CCCCCCCCCCCCC/C=C/[C@@H](O)[C@H](CO)NCCCCCCCCCC`, the GI50 with A549 cells [1] (Homo sapiens, A549, 72 h) amounted to 4.99 ± 0.08 µM; in the test on LEWIS LUNG cells (Lewis lung carcinoma, 72 h), 6.71 ± 1.04 µM; with OVCAR 3 cells (Homo sapiens, OVCAR-3, 72 h), 12.5 ± 0.85 µM; with CAKI 1 cells (Homo sapiens, CAKI-1, 72 h) it was 6.18 ± 0.01 µM; with SKMEL 28 cells (Homo sapiens, SK-MEL-28, 72 h) it was 13 µM; with MCF7/ADR cells (setting [3]), 6.19 ± 0.43 µM. Also, the GI50 in the test on MCF7 cells (Homo sapiens, MCF7, 72 h) was found to be 5.13 ± 0.01 µM; with HT 29 cells (Homo sapiens, HT-29, 72 h), 14.5 ± 0.14 µM.

Regarding `CCCCCCCCCCCCC/C=C/[C@@H](OC(=O)CCC)[C@H](CO[Si](C)(C)C(C)(C)C)NC(=O)CCCCC` [1-TBDMS-3-Butyrate C6-Cer, 1-TBDMS,3-butyrate, C6-Cer], the GI50 in the test with A549 cells [1] (Homo sapiens), in the test with U937 cells, with LEWIS LUNG cells (Lewis lung carcinoma), in the test on C3H10T1/2 cells and with RPMI 7666 cells was greater than 200 µM throughout.

Consider `CCCCCCCCCCCCC/C=C/[C@@H](O)[C@H](CO)NCCCCCCCC` [N-C8 Sphingosine HCl Salt], for which the GI50 in the test on A549 cells [1] (HCl Salt) came out at 4.97 ± 0.19 µM; in the test with LEWIS LUNG cells (HCl Salt), 4.82 ± 0.18 µM; in the test with OVCAR 3 cells (HCl Salt), 5.23 ± 0.01 µM; in the test on CAKI 1 cells (HCl Salt) it was 4.47 ± 0.01 µM; in the test on SKMEL 28 cells (HCl Salt) it was 4.95 ± 0.02 µM; in the test on MCF7/ADR cells (HCl Salt), 4.82 ± 0.18 µM. Moreover, the GI50 is 4.9 ± 0.02 µM in the test on MCF7 cells (HCl Salt) and 5.78 µM in the test with HT 29 cells (HCl Salt).

Turning to `CCCCCCCCCCCCC/C=C/[C@@H](O)[C@H](CO[Si](C)(C)C(C)(C)C)NC(=O)CCCCC` [1-TBDMS C6-Ceramide, 1-TBDMS C6-Cer], the GI50 is greater than 200 µM with A549 cells [1] (Homo sapiens); greater than 200 µM in the test with U937 cells; greater than 200 µM in the test on LEWIS LUNG cells (Lewis lung carcinoma); greater than 161 µM in the test with C3H10T1/2 cells; greater than 200 µM in the test on RPMI 7666 cells.

As to `CCCCCCCCCCCCC/C=C/C(=O)[C@H](COC(C)=O)NC(=O)CCCCC` [1-Acetate-3-one C6-Cer, 1-acetate-3-one C6-Cer], the GI50 in the test with A549 cells [1] (Homo sapiens, A549, 72 h) was 14.4 ± 0.1 µM; with LEWIS LUNG cells (Lewis lung carcinoma, 72 h), 14.5 ± 0.1 µM; in the test with OVCAR 3 cells (Homo sapiens, OVCAR-3, 72 h) it was 15.3 ± 0.1 µM; in the test on MCF7/ADR cells (setting [3]), 14.7 ± 0.1 µM; in the test with MCF7 cells (Homo sapiens, MCF7, 72 h) it was 6.7 ± 0.1 µM; in the test with HT 29 cells (Homo sapiens, HT-29, 72 h), 13.9 ± 0.2 µM.

Turning to `CCCCCCCCCCCCC/C=C/[C@@H](O)[C@H](COC(=O)CCC)NC(=O)CCCCC` [1-Butyrate C6-Ceramide, 1-butyrate, C6-ceramide], the 50% growth inhibitory concentration (GI50) with A549 cells [1] (Homo sapiens, A549, 72 h) was 6.2 ± 0.4 µM; in the test on LEWIS LUNG cells (Lewis lung carcinoma, 72 h) it was 6.4 ± 2.4 µM; in the test on MCF 7/ADR cells (1 hour pulse), greater than 100 µM; in the test with MCF 7/ADR cells (4 hour pulse) it was 79.1 ± 5.3 µM; in the test on MCF 7/ADR cells (8 hour pulse) it was 44 ± 1.1 µM; in the test with MCF 7/ADR cells (24 hour pulse), 20.8 ± 1.8 µM. The GI50 is 17.2 ± 0.1 µM with MCF 7/ADR cells (48 hour pulse); 18.5 ± 0.4 µM in the test on MCF 7/ADR cells (72 hour continuous exposure); greater than 100 µM in the test with A549 cells [2] (1 hour pulse); 52.9 ± 2.5 µM in the test on A549 cells [2] (4 hour pulse); 36.5 ± 0.8 µM with A549 cells [2] (8 hour pulse); 8.6 ± 0.6 µM in the test on A549 cells [2] (24 hour pulse). The GI50 was determined as 4.7 ± 0.1 µM with A549 cells [2] (48 hour pulse); 5.5 ± 0.2 µM in the test with A549 cells [2] (72 hour continuous exposure); 37.8 ± 8.06 µM in the test on MCF7/ADR cells (setting [3]); 17.9 ± 10 µM in the test with MCF7 cells (Homo sapiens, MCF7, 72 h).

The values above are taken from patent US5631394A, “Pharmaceutically active ceramide-related compounds” (The Liposome Company, Inc., priority 1995, dated 1997).
